Experimental data: ChEMBL document CHEMBL1145292, “Synthesis and activity of novel bile-acid conjugated glucocorticoid receptor antagonists” (Bioorg Med Chem Lett, 2006)

How the values were obtained:
Glucocorticoid receptor [1] = biological target: T1, Glucocorticoid receptor (Homo sapiens, UniProt P04150); assay: Binding affinity to human GR
T1 sequence (P04150 whole entry): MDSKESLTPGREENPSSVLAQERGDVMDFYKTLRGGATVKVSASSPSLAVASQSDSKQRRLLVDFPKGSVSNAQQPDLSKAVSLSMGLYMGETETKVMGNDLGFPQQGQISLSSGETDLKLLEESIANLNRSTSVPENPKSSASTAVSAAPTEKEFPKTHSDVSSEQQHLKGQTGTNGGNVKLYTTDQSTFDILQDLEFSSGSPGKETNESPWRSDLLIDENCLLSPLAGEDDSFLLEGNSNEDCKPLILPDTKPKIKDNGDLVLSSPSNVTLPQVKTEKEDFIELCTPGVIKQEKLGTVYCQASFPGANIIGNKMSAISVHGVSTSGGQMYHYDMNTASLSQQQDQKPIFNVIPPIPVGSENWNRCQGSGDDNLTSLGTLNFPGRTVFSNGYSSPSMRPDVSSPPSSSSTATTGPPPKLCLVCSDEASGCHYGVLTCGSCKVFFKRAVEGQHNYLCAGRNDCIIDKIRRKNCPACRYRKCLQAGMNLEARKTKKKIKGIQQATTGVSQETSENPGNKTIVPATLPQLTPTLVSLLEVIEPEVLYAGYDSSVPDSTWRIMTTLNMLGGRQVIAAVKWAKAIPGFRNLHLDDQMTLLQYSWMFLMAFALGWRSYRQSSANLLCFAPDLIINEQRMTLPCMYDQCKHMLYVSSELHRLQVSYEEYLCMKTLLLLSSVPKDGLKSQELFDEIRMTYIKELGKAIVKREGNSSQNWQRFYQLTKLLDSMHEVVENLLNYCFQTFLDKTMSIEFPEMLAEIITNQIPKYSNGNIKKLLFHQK

Glucocorticoid receptor [2] = biological target: T1, Glucocorticoid receptor; assay: Activity at GR expressed in CHO cells assessed as decrease in dexamethasone-stimulated alkaline phosphatase production by GRAF assay; type: cell-based
[3] = Stability in rat liver microsomes after 20 mins; type: ADME, Microsome; details: read-out: Stability
[4] = Protein binding in rat plasma; type: ADME, cell-free; details: read-out: PPB (converted)
[5] = Plasma concentration in Sprague-Dawley rat after 7 hrs at 100 mg/kg, po; type: ADME, organism-based; design: dose 100 mg/kg, route oral
Rattus norvegicus [6] = assay: Liver concentration in Sprague-Dawley rat after 7 hrs at 100 mg/kg, po; type: ADME, organism-based; design: dose 100 mg/kg, route oral; details: in vivo
Rattus norvegicus [7] = assay: Inhibition of prednisilone-stimulated TAT production in Sprague-Dawley rat at 100 mg/kg, po; type: functional
Rattus norvegicus [8] = assay: Inhibition of prednisilone-induced glycogen deposition in Sprague-Dawley rat at 100 mg/kg, po; type: functional
Rattus norvegicus [9] = assay: Inhibition of prednisilone-induced lymphopenia in Sprague-Dawley rat at 100 mg/kg, po; type: functional

For `CC#C[C@]1(O)CC[C@H]2[C@@H]3CCC4=CC(=O)CCC4=C3[C@@H](c3c(F)cc(OC)cc3F)C[C@@]21C`, which IC50 (Glucocorticoid receptor [1]) is on record?
The IC50 was 0.7 nM.

And the IC50 (Glucocorticoid receptor [2])?
Its IC50 is 10.1 nM.

For `CC#C[C@]1(O)CC[C@H]2[C@@H]3CCC4=CC(=O)CCC4=C3[C@@H](c3cc(OC)c(OC)c(OC)c3)C[C@@]21C`, which IC50 (Glucocorticoid receptor [1]) is on record?
Its IC50 is 60.7 nM.

With `C=CCOc1c(C)cc([C@H]2C[C@@]3(C)[C@@H](CC[C@@]3(O)C#CC)[C@@H]3CCC4=CC(=O)CCC4=C32)cc1Cl` as the molecule, how does the IC50 (Glucocorticoid receptor [1]) read?
The IC50 was 1.5 nM.

And the IC50 (Glucocorticoid receptor [2])?
Its IC50 is 20.9 nM.

Which results are given for `CC#C[C@]1(O)CC[C@H]2[C@@H]3CCC4=CC(=O)CCC4=C3[C@@H](c3ccc(N(C)C)cc3)C[C@@]21C` [MIFEPRISTONE]?
remaining at 20 min [3]: 70%; fraction unbound [4]: 0.044; concentration at 7 h [5]: 3.9 µM; Drug uptake (Rattus norvegicus [6]): 26.5%; inhibition in vivo at 100 mg/kg (Rattus norvegicus [7]): 101%; inhibition in vivo at 100 mg/kg (Rattus norvegicus [8]): 77%; inhibition in vivo at 100 mg/kg (Rattus norvegicus [9]): 104%

With `CC#C[C@]1(O)CC[C@H]2[C@@H]3CCC4=CC(=O)CCC4=C3[C@@H](c3c(F)cc(OC)cc3OC)C[C@@]21C` as the molecule, how does the IC50 (Glucocorticoid receptor [1]) read?
The IC50 was 6.1 nM.

What about the IC50 (Glucocorticoid receptor [2]) of the same molecule?
Its IC50 is 43 nM.

Which results are given for `CC#C[C@]1(O)CC[C@H]2[C@@H]3CCC4=CC(=O)CCC4=C3[C@@H](c3ccc(-c4ccc(OC)cc4)cc3)C[C@@]21C`?
IC50 (Glucocorticoid receptor [1]): 0.7 nM; IC50 (Glucocorticoid receptor [2]): 4.2 nM; remaining at 20 min [3]: 96%

Which results are given for `CC#C[C@]1(O)CC[C@H]2[C@@H]3CCC4=CC(=O)CCC4=C3[C@@H](c3ccc(Oc4ccccc4)cc3)C[C@@]21C`?
IC50 (Glucocorticoid receptor [1]): 1.5 nM; IC50 (Glucocorticoid receptor [2]): 18.8 nM

What does the source list for `CC#C[C@]1(O)CC[C@H]2[C@@H]3CCC4=CC(=O)CCC4=C3[C@@H](c3ccc(OCCO[C@H]4CC[C@@]5(C)[C@@H](C4)C[C@@H](O)[C@@H]4[C@@H]5C[C@H](O)[C@]5(C)[C@@H]([C@H](C)CCC(=O)O)CC[C@@H]45)c(C)c3)C[C@@]21C`?
IC50 (Glucocorticoid receptor [1]): 3.1 nM; IC50 (Glucocorticoid receptor [2]): 30.7 nM; remaining at 20 min [3]: 95%; fraction unbound [4]: 0.017; concentration at 7 h [5]: 4.5 µM; Drug uptake (Rattus norvegicus [6]): 22.2%; inhibition in vivo at 100 mg/kg (Rattus norvegicus [7]): 31%; inhibition in vivo at 100 mg/kg (Rattus norvegicus [8]): 0%; inhibition in vivo at 100 mg/kg (Rattus norvegicus [9]): 20%

What does the source list for `CC#C[C@]1(O)CC[C@H]2[C@@H]3CCC4=CC(=O)CCC4=C3[C@@H](c3cc(C)c(OCCO[C@H]4CC[C@@]5(C)[C@@H](C4)C[C@@H](O)[C@@H]4[C@@H]5C[C@H](O)[C@]5(C)[C@@H]([C@H](C)CCC(=O)O)CC[C@@H]45)c(C)c3)C[C@@]21C`?
IC50 (Glucocorticoid receptor [1]): 4.9 nM; IC50 (Glucocorticoid receptor [2]): 200 nM; inhibition in vivo at 100 mg/kg (Rattus norvegicus [7]): 0%; inhibition in vivo at 100 mg/kg (Rattus norvegicus [8]): 12%; inhibition in vivo at 100 mg/kg (Rattus norvegicus [9]): 0%

With `CC#C[C@]1(O)CC[C@H]2[C@@H]3CCC4=CC(=O)CCC4=C3[C@@H](c3c(OC)cc(OC)cc3OC)C[C@@]21C` as the molecule, how does the IC50 (Glucocorticoid receptor [1]) read?
The IC50 was 481 nM.

For `CC#C[C@]1(O)CC[C@H]2[C@@H]3CCC4=CC(=O)CCC4=C3[C@@H](c3ccc(-c4ccc(OCCO[C@H]5CC[C@@]6(C)[C@@H](C5)C[C@@H](O)[C@@H]5[C@@H]6C[C@H](O)[C@]6(C)[C@@H]([C@H](C)CCC(=O)O)CC[C@@H]56)cc4)cc3)C[C@@]21C`, which IC50 (Glucocorticoid receptor [1]) is on record?
Its IC50 is 2.5 nM.

What about the IC50 (Glucocorticoid receptor [2]) of the same molecule?
Its IC50 is 23.5 nM.

What about the remaining at 20 min [3] of the same molecule?
Its remaining at 20 min is 100%.

What about the inhibition in vivo at 100 mg/kg (Rattus norvegicus [7]) of the same molecule?
The inhibition in vivo at 100 mg/kg was 44%.

And the inhibition in vivo at 100 mg/kg (Rattus norvegicus [8])?
Its inhibition in vivo at 100 mg/kg is 51%.

And the inhibition in vivo at 100 mg/kg (Rattus norvegicus [9])?
The inhibition in vivo at 100 mg/kg was 40%.

For `C=CCOc1ccc([C@H]2C[C@@]3(C)[C@@H](CC[C@@]3(O)C#CC)[C@@H]3CCC4=CC(=O)CCC4=C32)cc1Cl`, which IC50 (Glucocorticoid receptor [1]) is on record?
Its IC50 is 0.4 nM.

And the IC50 (Glucocorticoid receptor [2])?
Its IC50 is 4.7 nM.

Which IC50 (Glucocorticoid receptor [1]) does the source give for `CC#C[C@]1(O)CC[C@H]2[C@@H]3CCC4=CC(=O)CCC4=C3[C@@H](c3ccc(N(C)CCO[C@H]4CC[C@@]5(C)[C@@H](C4)C[C@@H](O)[C@@H]4[C@@H]5C[C@H](O)[C@]5(C)[C@@H]([C@H](C)CCC(=O)O)CC[C@@H]45)cc3)C[C@@]21C` here?
Its IC50 is 1.2 nM.

What about the IC50 (Glucocorticoid receptor [2]) of the same molecule?
The IC50 was 10 nM.

And the remaining at 20 min [3]?
Its remaining at 20 min is 98%.

And the fraction unbound [4]?
Its fraction unbound is 0.041.

And the concentration at 7 h [5]?
The concentration at 7 h was 4.5 µM.

And the Drug uptake (Rattus norvegicus [6])?
Its Drug uptake is 26.5%.

And the inhibition in vivo at 100 mg/kg (Rattus norvegicus [7])?
Its inhibition in vivo at 100 mg/kg is 72%.

What about the inhibition in vivo at 100 mg/kg (Rattus norvegicus [8]) of the same molecule?
The inhibition in vivo at 100 mg/kg was 86%.

And the inhibition in vivo at 100 mg/kg (Rattus norvegicus [9])?
Its inhibition in vivo at 100 mg/kg is 9%.

What does the source list for `CC#C[C@]1(O)CC[C@H]2[C@@H]3CCC4=CC(=O)CCC4=C3[C@@H](c3cc(F)c(OC)cc3F)C[C@@]21C`?
IC50 (Glucocorticoid receptor [1]): 3.2 nM; IC50 (Glucocorticoid receptor [2]): 15 nM

Which IC50 (Glucocorticoid receptor [1]) does the source give for `CC#C[C@]1(O)CC[C@H]2[C@@H]3CCC4=CC(=O)CCC4=C3[C@@H](c3ccc(OC)cc3C)C[C@@]21C` here?
The IC50 was 9 nM.

What about the IC50 (Glucocorticoid receptor [2]) of the same molecule?
Its IC50 is 32 nM.

Which IC50 (Glucocorticoid receptor [1]) does the source give for `CC#C[C@]1(O)CC[C@H]2[C@@H]3CCC4=CC(=O)CCC4=C3[C@@H](c3ccc(O)c(C)c3)C[C@@]21C` here?
Its IC50 is 4.5 nM.

What about the IC50 (Glucocorticoid receptor [2]) of the same molecule?
Its IC50 is 28.6 nM.

For `CC#C[C@]1(O)CC[C@H]2[C@@H]3CCC4=CC(=O)CCC4=C3[C@@H](c3ccc(OC)cc3)C[C@@]21C`, which IC50 (Glucocorticoid receptor [1]) is on record?
Its IC50 is 0.9 nM.

What about the IC50 (Glucocorticoid receptor [2]) of the same molecule?
The IC50 was 7.6 nM.

Which IC50 (Glucocorticoid receptor [1]) does the source give for `CC#C[C@]1(O)CC[C@H]2[C@@H]3CCC4=CC(=O)CCC4=C3[C@@H](c3ccc(SC)cc3)C[C@@]21C` here?
The IC50 was 0.6 nM.

What about the IC50 (Glucocorticoid receptor [2]) of the same molecule?
Its IC50 is 1.8 nM.

Which IC50 (Glucocorticoid receptor [1]) does the source give for `CC#C[C@]1(O)CC[C@H]2[C@@H]3CCC4=CC(=O)CCC4=C3[C@@H](c3ccc(OC)c(C)c3)C[C@@]21C` here?
Its IC50 is 0.1 nM.

And the IC50 (Glucocorticoid receptor [2])?
Its IC50 is 1.1 nM.

What about the remaining at 20 min [3] of the same molecule?
Its remaining at 20 min is 87%.

What about the concentration at 7 h [5] of the same molecule?
The concentration at 7 h was 4.8 µM.

What about the Drug uptake (Rattus norvegicus [6]) of the same molecule?
The Drug uptake was 18.1%.

And the inhibition in vivo at 100 mg/kg (Rattus norvegicus [7])?
The inhibition in vivo at 100 mg/kg was 97%.

What about the inhibition in vivo at 100 mg/kg (Rattus norvegicus [9]) of the same molecule?
Its inhibition in vivo at 100 mg/kg is 67%.

Which results are given for `CC#C[C@]1(O)CC[C@H]2[C@@H]3CCC4=CC(=O)CCC4=C3[C@@H](c3cc(C)c(OC)c(C)c3)C[C@@]21C`?
IC50 (Glucocorticoid receptor [1]): 0.4 nM; IC50 (Glucocorticoid receptor [2]): 2.8 nM
